From patent publication US8507505B2, “Dihydropyrazolopyrimidinone derivative” (MSD K.K., priority 2008, dated 2013)

Key:
Wee1 kinase = molecular target: T1, Wee1 kinase (Homo sapiens, UniProt P30291); assay: Wee1 kinase inhibitory effect (Pharmacological Test 1); format: biochemical; conditions: purified GST-tagged Wee1 kinase, Poly(Lys, Tyr) substrate, 10 μM ATP, 30° C. for 30 minutes; read-out: Weel Inhibition Activity (IC50)
T1 construct: made in house; host or cells: Sf9 insect cells (recombinant baculovirus)
T1 sequence (P30291 whole entry): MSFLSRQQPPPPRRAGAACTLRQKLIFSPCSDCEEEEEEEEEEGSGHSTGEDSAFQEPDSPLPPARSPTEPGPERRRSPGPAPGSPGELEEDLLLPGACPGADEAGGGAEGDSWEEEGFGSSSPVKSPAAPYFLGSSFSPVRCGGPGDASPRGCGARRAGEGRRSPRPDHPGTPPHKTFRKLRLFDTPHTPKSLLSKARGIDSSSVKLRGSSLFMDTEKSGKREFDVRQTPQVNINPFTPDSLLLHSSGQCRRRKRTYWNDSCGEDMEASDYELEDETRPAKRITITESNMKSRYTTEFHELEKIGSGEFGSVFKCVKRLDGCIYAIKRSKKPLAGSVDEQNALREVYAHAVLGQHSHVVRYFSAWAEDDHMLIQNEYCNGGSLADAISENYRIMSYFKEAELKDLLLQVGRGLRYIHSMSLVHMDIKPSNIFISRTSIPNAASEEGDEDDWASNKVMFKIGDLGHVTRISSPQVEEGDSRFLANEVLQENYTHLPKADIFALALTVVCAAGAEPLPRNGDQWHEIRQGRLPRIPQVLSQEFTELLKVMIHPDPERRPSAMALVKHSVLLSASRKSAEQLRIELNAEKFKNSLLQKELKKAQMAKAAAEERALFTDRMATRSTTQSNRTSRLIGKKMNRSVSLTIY
Excerpt: The following describes exemplary pharmacological tests of a compound of the present invention._Pharmacological Test 1 (Wee1 kinase inhibitory effect)
A cDNA of Wee1 kinase with glutathione-S-transferase (GST) fused at the amino terminal thereof was inserted into a baculovirus expression vector to construct a recombinant baculovirus, with which cells of an insect cell line Sf9 were infected to overexpress the target protein. The infected cells were collected and lysed, and then the GST-tagged Wee1 kinase protein was adsorbed to a glutathione column and eluted from the column with glutathione, and the active fraction was desalted in a desalting column to give a purified enzyme.
In measurement of the Wee1 kinase activity, a synthetic peptide, Poly(Lys, Tyr) hydrobromide (Lys:Tyr (4:1)) purchased from Sigma was used as the substrate.
The amount of the reaction mixture was 21.1 μL; and the composition of the reaction buffer was 50 mM Tris-HCl buffer (pH 7.4)/10 mM magnesium chloride/1 mM dithiothreitol. The purified Wee1 kinase, 2.5 μg of the substrate peptide, 10 μM of non-labeled adenosine triphosphate (ATP) and 1 μCi of [γ-^33P]-labeled ATP (2500 Ci/mmol or more) were added to the reaction buffer, and the resulting mixture was incubated at 30° C. for 30 minutes. Thereafter, 10 μL of 350 mM phosphate buffer was added to the reaction system to stop the reaction. The substrate peptide was adsorbed on a P81 paper filter 96-well plate and the plate was washed several times with 130 mM phosphate buffer, and the radioactivity thereof was counted using a liquid scintillation counter. The [γ-^33P]-labeled ATP was purchased from Amersham Bioscience, Ltd.
The addition of a test compound to the reaction system was carried out by preparing a series of dilutions of the compound with dimethyl sulfoxide (DMSO) and adding 1.1 μL of each dilution to the reaction system. As a control, 1.1 μL of DMSO was added to the reaction system.

[1] = tested on: Cdc2 (Cdk1) tyrosine-15 phosphorylation in NCI-H1299 cells; assay: Inhibitory effect on Cdc2 (Cdk1) tyrosine-15 phosphorylation in cells (Pharmacological Test 2, NCI-H1299 method); format: cell-based; conditions: Homo sapiens, 200 nM camptothecin 16 hours, then test compound with nocodazole 8 hours, ELISA ratio of tyrosine-15-phosphorylated Cdc2 to Cdc2, read-out: Cdc2-Tyrosine 15 Phosphorylation Inhibiting Effect
Excerpt: Pharmacological Test 2 (Method for determining drug effect using cells (inhibitory effect on Cdc2 (Cdk1) tyrosine-15 phosphorylation))
Fetal bovine serum (FBS) was purchased from Morgate, Inc.; an RPMI-1640 medium and a DMEM medium were purchased from Invitrogen, Inc.; camptothecin was purchased from Sigma Co.; gemcitabine was purchased from Eli Lilly Japan K.K.; nocodazole and protease inhibitor cocktail were purchased from Sigma Co.; a rabbit anti-Cdc2 antibody and a mouse anti-Cdc2 antibody were purchased from Santa Cruz Biotechnology, Inc.; a rabbit anti-tyrosine-15-phosphorylated Cdc2 antibody and a horseradish peroxidase-labeled anti-mouse IgG antibody were purchased from Cell Signaling Technology, Inc.; and Sure Blue Reserve TMB peroxidase substrate was purchased from Kirkegaard & Perry Laboratories, Inc.
A human non-small cell lung cancer cell line (NCI-H1299) and a human colon cancer cell line (WiDr) can be obtained from American Type Culture Collection (ATCC).
In the method using NCI-H1299 cells, the cells were suspended in an RPMI-1640 medium supplemented with 10% FBS, and 100 μL of the resulting cell suspension was dispensed in a Nunclon Delta treated 96-well plastic plate purchased from Nunc, Inc. at a density of 2000 cells per well, and the plate was incubated overnight at 37° C. under an atmosphere of 5% CO2 and 95% air. Camptothecin was dissolved in dimethyl sulfoxide (DMSO) and further the resulting solution was diluted with an RPMI-1640 medium supplemented with 10% FBS. Then, 50 μL of the diluted solution was added to each well of the plate in which the cells were seeded in advance such that the final concentration of camptothecin was 200 nM, and the plate was incubated at 37° C. under an atmosphere of 5% CO2 and 95% air for 16 hours. A test compound was serially diluted with DMSO, and further diluted with an RPMI-1640 medium supplemented with 10% FBS containing 4000 nM nocodazole. Then, 50 μL of the test compound solution was added to each well of the plate in which the cells treated with camptothecin were seeded, and the plate was incubated at 37° C. under an atmosphere of 5% CO2 and 95% air for 8 hours. Then, the culture medium was removed from each well and […] of a cell lysis buffer was added to each well, and the plate was shaken at 4° C. for 2 hours, and thereafter the liquid in the plate was frozen at −80° C. and then thawed, which was used as a lysed cell solution. Cdc2 and tyrosine-15-phosphorylated Cdc2 in this lysed cell solution were measured by an enzyme-linked immunosorbent assay (ELISA method), and a ratio of tyrosine-15-phosphorylated Cdc2 to Cdc2 was calculated to determine a 50% effective concentration (EC50, nM) of the test compound for inhibition of phosphorylation in cells. The cell lysis buffer as used herein is an aqueous solution […] containing 20 mM HEPES (pH 7.5), 150 mM sodium chloride, 1 mM disodium ethylenediamine tetraacetate, 0.1% polyoxyethylene (10) octylphenyl ether, 1% protease inhibitor cocktail, 1 mM dithiothreitol, 2 mM sodium orthovanadate, 10 mM sodium fluoride and 10 mM glycerol diphosphate. The measurement of Cdc2 by the ELISA method was carried out as follows. 50 μL of a solution of a rabbit anti-Cdc2 antibody obtained by diluting the antibody to 200 times with 50 mM carbonate-bicarbonate buffer (pH 9.6) was dispensed into each well of a 96-well Maxisorb immunoplate purchased from Nunc, Inc., and the immunoplate was let stand overnight at 4° C. to immobilize the antibody thereto. Subsequently, each well was washed three times with phosphate buffered saline (PBS), and 300 μL of PBS containing 5% bovine serum albumin (5% BSA/PBS) was added to each well, and then, the immunoplate was let stand at room temperature for 2 hours. […]

Compound | IC50 (Wee1 kinase) | EC50 [1]
CN1CCN(c2ccc(Nc3ncc4c(=N)n(-c5c(Cl)cccc5Cl)c(=O)[nH]c4n3)cc2)CC1 [Example 5, 3-(2,6-Dichlorophenyl)-4-imino-7-{[4-(4-methylpiperazin-1-yl)phenyl]amino}-3,4-dihydropyrimido[4,5-d]pyrimidin-2(1H)-one] | 17 nM | 66 nM
Cc1cc(Nc2ncc3c(=N)n(-c4c(Cl)cccc4Cl)c(=O)[nH]c3n2)ccc1N1CCN(C)CC1 [Example 6, 3-(2,6-Dichlorophenyl)-4-imino-7-{[3-methyl-4-(4-methylpiperazin-1-yl)phenyl]amino}-3,4-dihydropyrimido[4,5-d]pyrimidin-2(1H)-one] | 8 nM | 25 nM
CN(C)[C@@H]1CCN(c2ccc(Nc3ncc4c(=N)n(-c5c(Cl)cccc5Cl)c(=O)[nH]c4n3)cc2)C1 [Example 8, 3-(2,6-Dichlorophenyl)-7-({4-[(3R)-3-dimethylaminopyrrolidin-1-yl]phenyl}amino)-4-imino-3,4-dihydropyrimido[4,5-d]pyrimidin-2(1H)-one] | 17 nM | 75 nM
CN1CC2CCN(c3ccc(Nc4ncc5c(=N)n(-c6c(Cl)cccc6Cl)c(=O)[nH]c5n4)cc3)C2C1 (stereo not shown) [Example 9, 3-(2,6-Dichlorophenyl)-4-imino-7-{[4-(5-methylhexahydropyrrolo[3,4-b]pyrrol-1(2H)-yl)phenyl}amino)-3,4-dihydropyrimido[4,5-d]pyrimidin-2(1H)-one] | 16 nM | 110 nM
CN1CCC2(CCCN(c3ccc(Nc4ncc5c(=N)n(-c6c(Cl)cccc6Cl)c(=O)[nH]c5n4)cc3)C2)C1 (stereo not shown) [Example 10, 3-(2,6-Dichlorophenyl)-4-imino-7-{[4-(2-methyl-2,7-diazaspiro[4,5]dec-7-yl)phenyl}amino)-3,4-dihydropyrimido[4,5-d]pyrimidin-2(1H)-one] | 18 nM | 110 nM

Next, values leading:

IC50 (Wee1 kinase) | EC50 [1] | Compound
4 nM | 71 nM | Cn1c(=O)n(-c2c(Cl)cccc2Cl)c(=N)c2cnc(Nc3ccc(N4CCN(CCO)CC4)cc3)nc21 [Example 1, 3-(2,6-Dichlorophenyl)-7-({4-[4-(2-hydroxyethyl)piperazin-1-yl]phenyl}amino)-4-imino-1-methyl-3,4-dihydropyrimido[4,5-d]pyrimidin-2(1H)-one]
2 nM | 86 nM | Cn1c(=O)n(-c2c(Cl)cccc2Cl)c(=N)c2cnc(Nc3ccc(N4CCOC(CO)C4)cc3)nc21 (stereo not shown) [Example 2, 3-(2,6-Dichlorophenyl)-7-({4-[2-(hydroxymethyl)morpholin-4-yl]phenyl}amino)-4-imino-1-methyl-3,4-dihydropyrimido[4,5-d]pyrimidin-2(1H)-one]
12 nM | 45 nM | CN(C)CC(=O)N1CCN(c2ccc(Nc3ncc4c(=N)n(-c5c(Cl)cccc5Cl)c(=O)n(C)c4n3)cc2)CC1 [Example 3, 3-(2,6-Dichlorophenyl)-7-[(4-{4-[(dimethylamino)acetyl]piperazin-1-yl}phenyl)amino]-4-imino-1-methyl-3,4-dihydropyrimido[4,5-d]pyrimidin-2(1H)-one]
10 nM | 34 nM | CN(C)CC1CN(c2ccc(Nc3ncc4c(=N)n(-c5c(Cl)cccc5Cl)c(=O)n(C)c4n3)cc2)CCO1 (stereo not shown) [Example 4, 3-(2,6-Dichlorophenyl)-7-[(4-{2-[(dimethylamino)methyl]morpholin-4-yl}phenyl)amino]-4-imino-1-methyl-3,4-dihydropyrimido[4,5-d]pyrimidin-2(1H)-one]
6 nM |  | CN1CCN(c2ccc(Nc3ncc4c(=N)n(-c5c(Cl)cccc5Cl)c(=O)n(C)c4n3)cc2)CC1 [Example 7, 3-(2,6-Dichlorophenyl)-4-imino-1-methyl-7-{[4-(4-methylpiperazin-1-yl)phenyl]amino}-3,4-dihydropyrimido[4,5-d]pyrimidin-2(1H)-one]
